In US7579471B2, “Tropane derivatives useful in therapy” (Pfizer, Inc., priority 2002, dated 2009):
Where two headings read alike, the source gives them in different places.

Molecular target: CCR5 receptors (Homo sapiens, UniProt P51681)
Test: inhibition of binding of HIV envelope protein (gp120) to CCR5 receptors
Settings: procedure of Example 1 of EP 1 118 858 A2
Text: Biol., 60, 147-52 (1996); by using the intracellular calcium mobilisation assays as described by the same authors; and by their ability to inhibit binding of HIV envelope protein (gp120) to CCR5 receptors according to the procedure described in Example 1 of EP 1 118 858 A2 (pp 85-88). Cell lines expressing the receptor of interest include those naturally expressing the receptor, such as PM-1, or IL-2 stimulated peripheral blood lymphocytes (PBL), or a cell engineered to express a recombinant receptor, such as CHO, 300.19, L1.2 or HEK-293.
The ability of the compounds of formula (I) to inhibit binding of HIV envelope protein (gp120) to CCR5 receptors was determined by the procedure described in Example 1 of EP 1 118 858 A2.

[1] = IC50, inhibition of binding of HIV envelope protein (gp120) to CCR5 receptors

CCR5 receptors, sequence (P51681 whole entry): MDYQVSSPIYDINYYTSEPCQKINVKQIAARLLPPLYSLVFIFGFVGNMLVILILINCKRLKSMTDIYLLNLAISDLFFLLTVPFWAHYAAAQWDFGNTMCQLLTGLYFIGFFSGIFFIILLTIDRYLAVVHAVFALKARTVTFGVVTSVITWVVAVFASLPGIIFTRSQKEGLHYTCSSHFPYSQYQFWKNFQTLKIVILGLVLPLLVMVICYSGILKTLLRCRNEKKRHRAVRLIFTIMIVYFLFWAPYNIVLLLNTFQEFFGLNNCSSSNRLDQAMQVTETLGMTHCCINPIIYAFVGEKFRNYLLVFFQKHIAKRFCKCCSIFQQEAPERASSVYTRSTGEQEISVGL

| IC50 (read-out: IC50, inhibition of binding of HIV envelope protein (gp120) to CCR5 receptors) [µM] | Structure (SMILES) | IC50 [1] [µM] |
| --- | --- | --- |
|  | CC(=O)N[C@@H](CCN1C2CCC1CC(n1c(C)nc3c1CN(C(=O)C(C)C)CC3)C2)c1ccccc1 (stereo partly drawn) [Example 9, N-{(1S)-3-[3-endo-(5-Isobutyryl-2-methyl-4,5,6,7-tetrahydro-3H-imidazo[4,5-c]pyridin-3-yl)-8-azabicyclo[3.2.1]oct-8-yl]-1-phenylpropyl}acetamide] | 0.007 |
|  | COC(=O)N[C@@H](CCN1C2CCC1CC(n1c(C)nc3c1CN(C(C)=O)CC3)C2)c1cccc(F)c1 (stereo partly drawn) [Example 17, Methyl (1S)-3-[3-endo-(5-acetyl-2-methyl-4,5,6,7-tetrahydro-3H-imidazo[4,5-c]pyridin-3-yl)-8-azabicyclo[3.2.1]oct-8-yl]-1-(3-fluorophenyl)propylcarbamate] | 0.015 |
| 0.007 | COC(=O)N[C@@H](CCN1C2CCC1CC(n1c(C)nc3c1CCN(C(=O)OC)C3)C2)c1ccccc1 (stereo partly drawn) [Example 30, Methyl 1-endo-(8-{(3S)-3-[(methoxycarbonyl)amino]-3-phenylpropyl}-8-azabicyclo[3.2.1]oct-3-yl)-2-methyl-4,5,6,7-tetrahydro-1H-imidazo[4,5-c]pyridine-5-carboxylate] |  |
|  | COC(=O)N1CCc2c(nc(C)n2C2CC3CCC(C2)N3CC[C@H](NC(C)=O)c2cccc(F)c2)C1 (stereo partly drawn) [Example 33, Methyl 1-endo-{8-[(3S)-3-(acetylamino)-3-(3-fluorophenyl)propyl]-8-azabicyclo[3.2.1]oct-3-yl}-2-methyl-4,5,6,7-tetrahydro-1H-imidazo[4,5-c]pyridine-5-carboxylate] | 0.023 |
|  | COC(=O)N1CCc2c(nc(C)n2C2CC3CCC(C2)N3CC[C@H](NC(C)=O)c2cccc(F)c2)C1 (stereo partly drawn) [Example 44, Methyl 1-endo-{8-[(3S)-3-(acetamido)-3-(3-fluorophenyl)propyl]-8-azabicyclo[3.2.1]oct-3-yl}-2-methyl-4,5,6,7-tetrahydro-1H-imidazo[4,5-c]pyridine-5-carboxylate monohydrate] | 0.014 |
